Measurements as given in patent US9452217B2, “Methods for potentiating immune response for the treatment of infectious diseases and cancer” (Nitor Therapeutics, priority 2013, dated 2016).

What was measured:
[1] = target: T1, human TLR9 (Homo sapiens, UniProt Q9NR96); test: TLR ligand screening: NF-κB activation (SEAP reporter) in HEK293 cells expressing TLR9; type: cell-based; details: one concentration: NTR001 10 uM, Inosine 100 uM; FIG. 2
T1 construct: expressed in transfected cells; host or cells: HEK293
T1 sequence (Q9NR96 26-1032): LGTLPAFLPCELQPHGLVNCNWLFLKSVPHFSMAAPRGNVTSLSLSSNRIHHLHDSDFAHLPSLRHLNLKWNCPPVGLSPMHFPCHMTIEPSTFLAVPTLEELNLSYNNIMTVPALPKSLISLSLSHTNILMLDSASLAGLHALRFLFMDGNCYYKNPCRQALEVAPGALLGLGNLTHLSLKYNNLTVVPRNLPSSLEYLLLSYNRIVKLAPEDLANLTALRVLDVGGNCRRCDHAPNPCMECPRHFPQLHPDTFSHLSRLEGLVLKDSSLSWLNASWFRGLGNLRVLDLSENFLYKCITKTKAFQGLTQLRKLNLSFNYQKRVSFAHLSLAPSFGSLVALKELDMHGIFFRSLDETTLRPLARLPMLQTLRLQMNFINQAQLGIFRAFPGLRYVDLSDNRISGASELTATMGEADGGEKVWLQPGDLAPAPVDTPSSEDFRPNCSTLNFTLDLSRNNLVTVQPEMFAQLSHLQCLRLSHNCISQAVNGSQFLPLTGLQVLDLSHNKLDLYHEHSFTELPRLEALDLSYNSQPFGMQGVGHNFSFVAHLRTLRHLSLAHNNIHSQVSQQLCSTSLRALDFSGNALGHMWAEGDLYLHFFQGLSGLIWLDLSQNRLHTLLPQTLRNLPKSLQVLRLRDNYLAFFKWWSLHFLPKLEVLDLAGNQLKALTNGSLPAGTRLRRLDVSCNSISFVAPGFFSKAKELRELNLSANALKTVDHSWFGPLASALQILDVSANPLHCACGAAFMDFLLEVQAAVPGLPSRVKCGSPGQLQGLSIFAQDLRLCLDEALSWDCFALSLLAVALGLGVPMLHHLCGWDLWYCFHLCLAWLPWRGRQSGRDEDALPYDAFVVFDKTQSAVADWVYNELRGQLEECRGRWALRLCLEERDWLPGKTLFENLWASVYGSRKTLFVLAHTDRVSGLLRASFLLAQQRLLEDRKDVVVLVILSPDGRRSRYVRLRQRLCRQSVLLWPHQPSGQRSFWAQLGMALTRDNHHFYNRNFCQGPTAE
Experimental: (§1) Method: TLR stimulation is tested by assessing NF-κB activation in HEK293 cells expressing a given TLR. The Secreted Embryonic Alkaline Phosphatase (SEAP) reporter is under the control of a promoter inducible by the transcription factor NF-κB. This reporter gene allows the monitoring of signaling through the TLR, based on the activation of NF-κB. The compounds are evaluated at one concentration and compared to control ligands. This step is performed in triplicate.

[2] = target: T2, human TLR4 (Homo sapiens, UniProt O00206+Q9Y6Y9); test: TLR ligand screening: NF-κB activation (SEAP reporter) in HEK293 cells expressing TLR4; type: cell-based; details: one concentration: Guanosine 100 uM, NTR001 10 uM, Inosine 100 uM; FIG. 2
T2 construct: expressed in transfected cells; host or cells: HEK293
T2 sequence (O00206 24-839): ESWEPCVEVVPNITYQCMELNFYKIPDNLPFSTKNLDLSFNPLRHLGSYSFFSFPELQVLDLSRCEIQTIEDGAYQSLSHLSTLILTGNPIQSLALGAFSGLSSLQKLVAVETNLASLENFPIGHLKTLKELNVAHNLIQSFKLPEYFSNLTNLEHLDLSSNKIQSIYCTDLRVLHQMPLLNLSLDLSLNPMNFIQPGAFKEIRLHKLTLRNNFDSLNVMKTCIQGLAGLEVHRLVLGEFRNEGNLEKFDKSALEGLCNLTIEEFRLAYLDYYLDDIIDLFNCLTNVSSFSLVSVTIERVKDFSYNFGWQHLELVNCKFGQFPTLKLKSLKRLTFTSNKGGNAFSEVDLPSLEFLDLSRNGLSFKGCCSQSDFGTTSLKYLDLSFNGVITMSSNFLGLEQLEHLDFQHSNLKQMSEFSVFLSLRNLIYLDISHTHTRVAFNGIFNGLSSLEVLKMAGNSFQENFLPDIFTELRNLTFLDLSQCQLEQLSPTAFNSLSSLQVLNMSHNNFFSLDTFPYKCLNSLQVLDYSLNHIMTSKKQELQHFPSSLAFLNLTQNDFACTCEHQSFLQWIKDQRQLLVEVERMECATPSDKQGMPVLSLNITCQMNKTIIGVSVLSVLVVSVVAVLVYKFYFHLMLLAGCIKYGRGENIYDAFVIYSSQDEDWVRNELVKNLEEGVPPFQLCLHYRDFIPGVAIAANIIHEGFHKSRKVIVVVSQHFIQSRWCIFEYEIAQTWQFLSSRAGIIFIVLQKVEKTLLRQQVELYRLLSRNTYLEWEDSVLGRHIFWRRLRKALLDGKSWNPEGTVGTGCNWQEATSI
T2 sequence (Q9Y6Y9 17-160 limits assumed): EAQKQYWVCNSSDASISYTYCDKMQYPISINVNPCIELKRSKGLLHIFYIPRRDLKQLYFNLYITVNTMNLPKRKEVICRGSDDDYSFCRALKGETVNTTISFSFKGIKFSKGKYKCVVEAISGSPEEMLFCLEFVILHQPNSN
Experimental: as §1

[3] = target: T3, human TLR2 (Homo sapiens, UniProt O60603); test: TLR ligand screening: NF-κB activation (SEAP reporter) in HEK293 cells expressing TLR2; type: cell-based; details: one concentration: Guanosine 100 uM, NTR001 10 uM, Inosine 100 uM; FIG. 2
T3 construct: expressed in transfected cells; host or cells: HEK293
T3 sequence (O60603 21-784): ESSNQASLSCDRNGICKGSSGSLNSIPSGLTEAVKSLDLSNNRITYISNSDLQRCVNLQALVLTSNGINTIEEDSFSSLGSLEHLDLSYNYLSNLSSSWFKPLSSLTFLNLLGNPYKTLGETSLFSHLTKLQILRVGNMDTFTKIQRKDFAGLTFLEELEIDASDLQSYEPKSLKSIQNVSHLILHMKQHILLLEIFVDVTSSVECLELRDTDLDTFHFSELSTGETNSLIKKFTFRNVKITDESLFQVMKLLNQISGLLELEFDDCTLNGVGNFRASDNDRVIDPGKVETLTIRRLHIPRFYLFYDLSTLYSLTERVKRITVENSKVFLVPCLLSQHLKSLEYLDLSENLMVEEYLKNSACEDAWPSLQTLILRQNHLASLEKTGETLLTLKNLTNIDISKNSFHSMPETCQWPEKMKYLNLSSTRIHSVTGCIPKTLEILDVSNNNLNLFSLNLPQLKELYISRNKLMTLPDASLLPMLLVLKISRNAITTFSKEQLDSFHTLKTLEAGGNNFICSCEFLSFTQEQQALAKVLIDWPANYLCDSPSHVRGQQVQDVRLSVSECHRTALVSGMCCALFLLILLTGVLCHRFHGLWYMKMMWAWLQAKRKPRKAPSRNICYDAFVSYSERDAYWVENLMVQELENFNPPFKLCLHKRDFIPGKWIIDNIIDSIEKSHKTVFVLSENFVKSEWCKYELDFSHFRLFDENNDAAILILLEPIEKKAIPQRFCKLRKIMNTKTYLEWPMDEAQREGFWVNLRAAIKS
Experimental: as §1

[4] = target: T4, human TLR3 (Homo sapiens, UniProt O15455); test: TLR ligand screening: NF-κB activation (SEAP reporter) in HEK293 cells expressing TLR3; type: cell-based; details: one concentration: NTR001 10 uM, Inosine 100 uM; FIG. 2
T4 construct: expressed in transfected cells; host or cells: HEK293
T4 sequence (O15455 24-904): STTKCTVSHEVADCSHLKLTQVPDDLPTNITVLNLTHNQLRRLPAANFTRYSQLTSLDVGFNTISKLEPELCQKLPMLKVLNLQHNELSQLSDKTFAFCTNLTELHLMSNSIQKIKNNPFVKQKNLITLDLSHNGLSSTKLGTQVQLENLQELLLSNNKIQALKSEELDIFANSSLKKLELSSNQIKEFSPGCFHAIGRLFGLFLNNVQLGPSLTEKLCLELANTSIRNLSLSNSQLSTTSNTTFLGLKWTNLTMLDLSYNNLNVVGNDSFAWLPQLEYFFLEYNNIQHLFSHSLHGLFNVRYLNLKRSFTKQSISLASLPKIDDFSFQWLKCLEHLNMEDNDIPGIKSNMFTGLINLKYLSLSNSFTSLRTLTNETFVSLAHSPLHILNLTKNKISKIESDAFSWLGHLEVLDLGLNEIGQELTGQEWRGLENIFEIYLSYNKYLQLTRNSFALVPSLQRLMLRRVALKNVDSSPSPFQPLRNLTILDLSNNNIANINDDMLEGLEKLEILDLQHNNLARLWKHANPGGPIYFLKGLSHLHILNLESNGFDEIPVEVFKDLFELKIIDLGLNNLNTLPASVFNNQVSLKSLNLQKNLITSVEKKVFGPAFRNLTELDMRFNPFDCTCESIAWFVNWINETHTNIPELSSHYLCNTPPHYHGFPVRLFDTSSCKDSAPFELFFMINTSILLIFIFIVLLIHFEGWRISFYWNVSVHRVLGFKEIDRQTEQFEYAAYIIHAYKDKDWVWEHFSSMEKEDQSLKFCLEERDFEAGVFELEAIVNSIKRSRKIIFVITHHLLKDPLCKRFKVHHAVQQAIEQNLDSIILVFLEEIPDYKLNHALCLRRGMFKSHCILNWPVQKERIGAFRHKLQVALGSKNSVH
Experimental: as §1

[5] = target: T5, human TLR5 (Homo sapiens, UniProt O60602); test: TLR ligand screening: NF-κB activation (SEAP reporter) in HEK293 cells expressing TLR5; type: cell-based; details: one concentration: NTR001 10 uM, Inosine 100 uM; FIG. 2
T5 construct: expressed in transfected cells; host or cells: HEK293
T5 sequence (O60602 21-858): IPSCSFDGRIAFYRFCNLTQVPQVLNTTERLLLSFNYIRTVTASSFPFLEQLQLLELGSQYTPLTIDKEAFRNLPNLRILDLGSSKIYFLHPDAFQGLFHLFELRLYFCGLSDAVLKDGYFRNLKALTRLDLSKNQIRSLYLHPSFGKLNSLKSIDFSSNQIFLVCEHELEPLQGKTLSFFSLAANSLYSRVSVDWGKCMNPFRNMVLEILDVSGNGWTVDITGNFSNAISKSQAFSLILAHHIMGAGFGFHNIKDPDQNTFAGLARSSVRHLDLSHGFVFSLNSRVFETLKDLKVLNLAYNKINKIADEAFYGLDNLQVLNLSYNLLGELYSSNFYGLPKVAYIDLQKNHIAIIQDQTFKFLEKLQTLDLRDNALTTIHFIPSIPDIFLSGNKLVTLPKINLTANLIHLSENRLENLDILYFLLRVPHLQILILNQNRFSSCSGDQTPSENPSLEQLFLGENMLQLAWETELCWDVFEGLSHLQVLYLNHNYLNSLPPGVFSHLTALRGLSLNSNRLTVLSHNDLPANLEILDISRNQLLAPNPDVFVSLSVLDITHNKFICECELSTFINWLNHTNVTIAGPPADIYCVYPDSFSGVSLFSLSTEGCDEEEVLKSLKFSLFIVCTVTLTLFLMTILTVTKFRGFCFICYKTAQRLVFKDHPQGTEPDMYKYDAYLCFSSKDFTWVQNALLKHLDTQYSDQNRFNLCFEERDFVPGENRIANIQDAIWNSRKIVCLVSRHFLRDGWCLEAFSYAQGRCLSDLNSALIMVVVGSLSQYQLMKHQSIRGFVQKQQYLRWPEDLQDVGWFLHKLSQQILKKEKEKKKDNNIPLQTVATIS
Experimental: as §1

[6] = tested on: immune response to tetanus toxoid vaccine; test: PNPi as adjuvant in tetanus toxoid vaccine efficacy study (mouse); type: in vivo; details: mice, p.o., ELISA
[7] = tested on: L. monocytogenes (ATCC Strain35152, hemolytic substrain); test: Mouse model of L. monocytogenes infection; details: Balb/c mice infected i.v. with 1×10^6 CFU; 30 mg/kg PO or IP, 2 mg/kg drinking water; FIGS. 7 and 9
[8] = tested on: B16 tumors; test: Syngeneic mouse melanoma model; type: in vivo, C57BL/6 mice
Experimental: Method: Cancer cells were injected subcutaneously in right flank of each mouse, 1×10^4 cells in 0.1 ml PBS with 20% Matrigel. Treatment with the NTR001 was initiated on day 6 after injection of tumor cells. Tumor volume and survival were recorded every 3-4 days.

## OC[C@H]1O[C@@H](n2cnc3c(O)ncnc32)[C@H](O)[C@@H]1O [Inosine]
[1]
  stimulatory effect on human TLR9: do not exhibit a stimulatory effect
[2]
  stimulatory effect on human TLR4: do not exhibit a stimulatory effect
[3]
  stimulatory effect on human TLR2: do not exhibit a stimulatory effect
[4]
  stimulatory effect on human TLR3: do not exhibit a stimulatory effect
[5]
  stimulatory effect on human TLR5: do not exhibit a stimulatory effect

## O=c1[nH]cnc2c([C@@H]3N[C@H](CO)[C@@H](O)[C@H]3O)c[nH]c12 [NTR001, 7-[(2S,3S,4R,5R)-3,4-dihydroxy-5-(hydroxymethyl)-2-pyrrolidinyl]-1,5-dihydro-4H-pyrrolo [3,2-d]pyrimidin-4-one]
[6]; 30 mg/kg (6 days of treatment) and 60 mg/kg (3 days of treatment), day 38, FIG. 3
  serum tetanus toxoid antibody titers compared to the vehicle treated group: significantly elevated
[6]; high dose group 60 mg/kg, day 30, FIG. 4
  serum interferon-g compared to the vehicle treated group: elevated
[7]
  weight loss: significant decrease in weight loss
[1]
  stimulatory effect on human TLR9: do not exhibit a stimulatory effect
[2]
  stimulatory effect on human TLR4: do not exhibit a stimulatory effect
[3]
  stimulatory effect on human TLR2: do not exhibit a stimulatory effect
[4]
  stimulatory effect on human TLR3: do not exhibit a stimulatory effect
[8]; B16 tumors in C57BL/6 mice, treatment from day 6, FIG. 5
  tumor volume: significant decrease
[8]; NTR001 as single agent (30 mg/kg PO week on/off; 5 mg/kg drinking water 28 days), FIG. 6
  survival: 0-20%
[5]
  stimulatory effect on human TLR5: do not exhibit a stimulatory effect
